Experimental data from patent US20200385371A1 (Propellon Therapeutics Inc., priority 2017, published 2020).

Experiments:
[1] = test system: MV4-11 cells; experiment: Cell proliferation assay (ATPlite); assay type: cell-based; settings: Homo sapiens, 120 h; MV4-11 cells, five days; read-out: GI MV411 EC50
Method in brief: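 Cells seeded at 1,000/well in Alpha-MEM with 10% FBS, treated with compound over a 10-point range (top 10 μM) or DMSO. Grown five days at 37° C, 5% CO2; viability by ATPlite luminescence.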

[2] = target: T1, WDR5 (Homo sapiens, UniProt P61964); experiment: Fluorescence Polarization (FP) binding assay
Method in brief: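 Displacement of fluorescein-labelled H3 (1-15) (30 nM, with 0.3 μM WDR5) or 9-Ala-FAM (20 nM, with 0.05 μM WDR5) in 80 mM sodium phosphate pH 6.5, 20 mM KCl, 0.008% Triton X-100. FP read at 485/528 nm (H3) or 480/540 nm (9-Ala-FAM); Kdisp from hyperbolic fit, mean of quadruplicates.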

[3] = target: T1, WDR5; experiment: Surface Plasmon Resonance (SPR) assay; assay type: binding; set-up: Full length WDR5 with an N-terminal His tag and C-terminal AviTag; His tag (N); made in house; host or cells: E. coli; settings: read-out: SPR Kd
Method in brief: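 Full-length biotinylated WDR5 (N-His, C-AviTag, E. coli) captured (~3000 RU) on streptavidin SA chip; Biacore T200. HBS-EP pH 7.4 plus 5% DMSO running buffer, 40 μl/min.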

Row | Compound | EC50 [1] [nM] | IC50 [2] [nM] | Kd [3] [nM]
1 | C[C@@H]1CN(c2cc(F)c(-c3ccc(F)c(C(N)=O)c3)c(F)c2NC(=O)c2c[nH]c(=O)cc2C(F)(F)F)C[C@H](C)N1C [Example 28, N-(3′-carbamoyl-2,4′,6-trifluoro-4-((3S,5R)-3,4,5-trimethylpiperazin-1-yl)-[1,1′-biphenyl]-3-yl)-6-oxo-4-(trifluoromethyl)-1,6-dihydropyridine-3-carboxamide] | 2870 | 36.2 | 5.01
2 | C[C@@H]1CN(c2cc(F)c(C3=CCCN(C(=O)OC4CC(F)(F)C4)C3)c(F)c2NC(=O)c2c[nH]c(=O)cc2C(F)(F)F)C[C@H](C)N1C [Example 20, 3,3-Difluorocyclobutyl 5-(2,6-difluoro-3-(6-oxo-4-(trifluoromethyl)-1,6-dihydropyridine-3-carboxamido)-4-((3S,5R)-3,4,5-trimethylpiperazin-1-yl)phenyl)-3,6-dihydropyridine-1(2H)-carboxylate] | 153 | 14.1 | 2.06
3 | C[C@@H]1CN(c2cc(F)c(-c3cnc(N4C[C@H](C)O[C@@H](C)C4)nc3)c(F)c2NC(=O)c2c[nH]c(=O)cc2C(F)(F)F)C[C@H](C)N1C [Example 88, N-(3-(2-((2S,6S)-2,6-dimethylmorpholino)pyrimidin-5-yl)-2,4-difluoro-6-((3S,5R)-3,4,5-trimethylpiperazin-1-yl)phenyl)-6-oxo-4-(trifluoromethyl)-1,6-dihydropyridine-3-carboxamide] | 9.55 | 13.8 | 2.49
4 | C[C@H]1CN(c2ccc(-c3c(F)cc(N4CCN(C)[C@@H](C)C4)c(NC(=O)c4c[nH]c(=O)cc4C(F)(F)F)c3F)cn2)CCO1 [Example 171, N-(6-((S)-3,4-dimethylpiperazin-1-yl)-2,4-difluoro-3-(6-((S)-2-methylmorpholino)pyridin-3-yl)phenyl)-6-oxo-4-(trifluoromethyl)-1,6-dihydropyridine-3-carboxamide] | 51.9 | 16.1 | 0.49
5 | C[C@@H]1CN(c2ccc(-c3c(F)cc(N4CCN(C)[C@@H](C)C4)c(NC(=O)c4c[nH]c(=O)cc4C(F)F)c3F)cn2)CCO1 [Example 181, 4-(Difluoromethyl)-N-(6-((S)-3,4-dimethylpiperazin-1-yl)-2,4-difluoro-3-(6-((R)-2-methylmorpholino)pyridin-3-yl)phenyl)-6-oxo-1,6-dihydropyridine-3-carboxamide] | 29.9 | 24.5 | 0.64
6 | C[C@H]1CN(c2cc(F)c(C3=CCN(c4ncc(F)cn4)CC3)c(F)c2NC(=O)c2c[nH]c(=O)cc2C(F)F)CCN1C [Example 81, (S)-4-(difluoromethyl)-N-(6-(3,4-dimethylpiperazin-1-yl)-2,4-difluoro-3-(1-(5-fluoropyrimidin-2-yl)-1,2,3,6-tetrahydropyridin-4-yl)phenyl)-6-oxo-1,6-dihydropyridine-3-carboxamide] | 44 | 12.5 | 1.37
7 | C[C@H]1CN(c2cc(F)c(C3=CCN(c4ncc(C#N)s4)C3)c(F)c2NC(=O)c2c[nH]c(=O)cc2C(F)F)CCN1C [Example 95, (S)—N-(3-(1-(5-cyanothiazol-2-yl)-2,5-dihydro-1H-pyrrol-3-yl)-6-(3,4-dimethylpiperazin-1-yl)-2,4-difluorophenyl)-4-(difluoromethyl)-6-oxo-1,6-dihydropyridine-3-carboxamide] | 96.4 | 13.8 | 0.79
8 | Cc1nc(C(=O)N2CC=C(c3c(F)cc(N4CCN(C)[C@@H](C)C4)c(NC(=O)c4c[nH]c(=O)cc4C(F)F)c3F)CC2)cs1 [Example 159, (S)-4-(difluoromethyl)-N-(6-(3,4-dimethylpiperazin-1-yl)-2,4-difluoro-3-(1-(2-methylthiazole-4-carbonyl)-1,2,3,6-tetrahydropyridin-4-yl)phenyl)-6-oxo-1,6-dihydropyridine-3-carboxamide] | 440 | 13.9 | 2.2
9 | C[C@@H]1CN(c2ncc(-c3c(F)cc(N4CCN(C)[C@@H](C)C4)c(NC(=O)c4ccc(F)cc4C(F)(F)F)c3F)cn2)C[C@H](C)O1 [Example 66, N-(3-(2-((2S,6R)-2,6-dimethylmorpholino)pyrimidin-5-yl)-6-((S)-3,4-dimethylpiperazin-1-yl)-2,4-difluorophenyl)-4-fluoro-2-(trifluoromethyl)benzamide Formic Acid] | 45.8 | 14.1 | 2.02
10 | C[C@@H]1CN(c2ncc(-c3c(F)cc(N4C[C@@H](C)N(C)[C@@H](C)C4)c(NC(=O)c4c[nH]c(=O)cc4C(F)(F)F)c3F)cn2)C[C@@H](C)O1 [Example 86, N-(3-(2-((2R,6R)-2,6-dimethylmorpholino)pyrimidin-5-yl)-2,4-difluoro-6-((3S,5R)-3,4,5-trimethylpiperazin-1-yl)phenyl)-6-oxo-4-(trifluoromethyl)-1,6-dihydropyridine-3-carboxamide] | 10.5 | 13.1 | 0.88
11 | C[C@H]1CN(c2cc(F)c(C3=CCN(c4ncc(F)cn4)C3)c(F)c2NC(=O)c2c[nH]c(=O)cc2C(F)F)CCN1C [Example 91, (S)-4-(difluoromethyl)-N-(6-(3,4-dimethylpiperazin-1-yl)-2,4-difluoro-3-(1-(5-fluoropyrimidin-2-yl)-2,5-dihydro-1H-pyrrol-3-yl)phenyl)-6-oxo-1,6-dihydropyridine-3-carboxamide] | 38.3 | 16 | 1.55
12 | C[C@@H]1CN(c2cc(F)c(C3=CCCN(c4ncc(F)cn4)C3)c(F)c2NC(=O)c2c[nH]c(=O)cc2C(F)(F)F)C[C@H](C)N1C [Example 146, N-(2,4-difluoro-3-(1-(5-fluoropyrimidin-2-yl)-1,2,5,6-tetrahydropyridin-3-yl)-6-((3S,5R)-3,4,5-trimethylpiperazin-1-yl)phenyl)-6-oxo-4-(trifluoromethyl)-1,6-dihydropyridine-3-carboxamide] | 239 | 21 | 1.65
13 | C[C@H]1CN(c2cc(F)c(-c3ccc(N4CCOCC4)nc3)c(F)c2NC(=O)c2ccc(F)cc2C(F)(F)F)CCN1C [Example 174, (S)—N-(6-(3,4-dimethylpiperazin-1-yl)-2,4-difluoro-3-(6-morpholinopyridin-3-yl)phenyl)-4-fluoro-2-(trifluoromethyl)benzamide] | 191 | 19.5 | 1.71
14 | C[C@@H]1CN(c2cc(F)c(C3=CCN(C(=O)OC4CC(F)(F)C4)C3)c(F)c2NC(=O)c2c[nH]c(=O)cc2C(F)(F)F)C[C@H](C)N1C [Example 136, 3,3-Difluorocyclobutyl 3-(2,6-difluoro-3-(6-oxo-4-(trifluoromethyl)-1,6-dihydropyridine-3-carboxamido)-4-((3S,5R)-3,4,5-trimethylpiperazin-1-yl)phenyl)-2,5-dihydro-1H-pyrrole-1-carboxylate] | 42 | 14.9 | 1.16
15 | C[C@@H]1CN(c2ncc(-c3c(F)cc(N4C[C@@H](C)N(C)[C@@H](C)C4)c(NC(=O)c4c[nH]c(=O)cc4C(F)(F)F)c3F)cn2)CCO1 [Example 128, N-(2,4-difluoro-3-(2-((R)-2-methylmorpholino)pyrimidin-5-yl)-6-((3S,5R)-3,4,5-trimethylpiperazin-1-yl)phenyl)-6-oxo-4-(trifluoromethyl)-1,6-dihydropyridine-3-carboxamide] | 5.85 | 12.8 | 0.69
16 | C[C@@H]1CN(c2cc(F)c(C3=CCN(c4ccnc(C#N)n4)CC3)c(F)c2NC(=O)c2c[nH]c(=O)cc2C(F)(F)F)C[C@H](C)N1C [Example 152, N-(3-(1-(2-cyanopyrimidin-4-yl)-1,2,3,6-tetrahydropyridin-4-yl)-2,4-difluoro-6-((3S,5R)-3,4,5-trimethylpiperazin-1-yl)phenyl)-6-oxo-4-(trifluoromethyl)-1,6-dihydropyridine-3-carboxamide] | 24 | 15.3 | 0.68
17 | C[C@@H]1CN(c2nccc(-c3c(F)cc(N4CCN(C)[C@@H](C)C4)c(NC(=O)c4cn(C)c(=O)cc4C(F)(F)F)c3F)n2)C[C@H](C)O1 [Example 56, N-(3-(2-((2S,6R)-2,6-dimethylmorpholino)pyrimidin-4-yl)-6-((S)-3,4-dimethylpiperazin-1-yl)-2,4-difluorophenyl)-1-methyl-6-oxo-4-(trifluoromethyl)-1,6-dihydropyridine-3-carboxamide] | 1320 | 36.7 | 9.79
18 | CC(C)OC(=O)N1CC=C(c2c(F)cc(N3CCN(C)[C@@H](C)C3)c(NC(=O)c3c[nH]c(=O)cc3C(F)F)c2F)C1 [Example 36, Isopropyl (S)-3-(3-(4-(difluoromethyl)-6-oxo-1,6-dihydropyridine-3-carboxamido)-4-(3,4-dimethylpiperazin-1-yl)-2,6-difluorophenyl)-2,5-dihydro-H-pyrrole-1-carboxylate] | 54.5 | 13.2 | 1.04
